From patent US8287919B2, “Low environmental impact pesticide made from “gras” ingredients for use against coqui frogs and other species” (priority 2009, dated 2012)
Where two headings read alike, the source gives them in different places.

Assays:
mature Palm trees = test: Phytotoxicity to sprayed palm trees; type: in vivo; settings: spray on mature palm trees
Method: Large-scale examples of the product's use and phytotoxicity at the same concentration (about 11.5%) as used in previous examples were also conducted by Palms of Hawaii. A five-gallon back pack sprayer equipped with a mist spray nozzle was used to spray mature Palm trees being prepared for distribution with about a gallon of spray each.
Upon spraying palm trees having frogs, frogs leap off the root balls and crowns and from the junctions between the fronds and tree trunks. The nurseryman rated the complete removal, if not extermination of all frogs from the trees as excellent.

common plants = system: common plants; design: key: severe: most if not all the leaves turned black; flowers and leaves became bleached and recovery was slow; moderate: young leaves and new shoots burned; the outer edges of leaves burned and dropped; dark brown spots appeared where acid may have concentrated; and recovery of the plants were slow; slight: the leaves were spotted white, or lesions formed on the trunk; settings: citric acid 25%, three days after treatment, cited from earlier work
Coqui = settings: in vivo; cited from earlier work
frogs = test: Frog killing time with different concentrations; type: in vivo, Eleutherodactylus coqui
Method: Additionally, this formulation killed 10 out of 10 frogs within about 15 minutes.

human skin = test: Contact with human skin; type: in vivo; settings: solution with pH of less than 0.5
Method: As discussed above, AGIIS has relatively less dehydrating properties (such as charring sucrose) as compared to the saturated solution of CaSO4 in the same concentration of H2SO4. […] AGIIS has low volatility at room temperature and pressure.
In view of the need to find new phytogenic friendly alternatives for controlling the spread of Coqui frogs, a commercially available food sanitation product (i.e. Acidic Calcium Sulfate (“ACS”) was evaluated for inclusion in the current inventory of chemicals that can be applied as sprays. ACS and functional equivalents thereof are made from ingredients that are generally regarded as safe (“GRAS”), and is approved for use in food by the FDA and USDA. Although not wanting to be bound by theory, the efficacy of this product stems from its very unique characteristic of being able to donate a very high activity of hydrogen ions (low pH), while at the same time, having very low oxidative effects on plants and human skin. For example, a five (5) normal concentration of ACS having a pH of approximately zero may be held in the human hand without harm to the person holding the acid. In contrast, when very small amounts are applied to the skin of Coqui frogs it is quickly absorbed and respiration is immediately impaired with lethal results. […]

O=C(O)CC(O)(CC(=O)O)C(=O)O [citric acid]
phytotoxicity to palm trees (mature Palm trees): typically causes browning | phytotoxicity rating (common plants; guava plant, bromeliad, dendrobium orchid and leatherleaf fern): moderate | phytotoxicity rating (common plants; passion fruit and payaya): slight | phytotoxicity rating (common plants; streptocarpus, calathea and eggplants): severe

[Ca+2].[OH-].[OH-] [hydrated lime]
effectiveness in eradicating frogs (Coqui): not entirely effective

CCC(=O)O [propionic acid]
killing speed compared with standard citric acid (frogs; 5% solution): killed equally fast | killing speed compared with standard citric acid (frogs; 10% solution): killed frogs faster than standard citric acid | lethality to frogs (frogs; concentrations from about 5% to about 10%): lethal to the frogs in the test group

O=S(=O)(O)O [sulfuric acid]
irritation of hand put into solution (human skin): an irritation would occur within a relatively short span of time
